The test system of data set [1] is multiple human cancer cell lines. Briefly: In vitro activity in multiple human cancer cell lines. Particulars: in most cases. It is filed as cell-based.
In a further data set the test system is HCC1937 tumors. Briefly: Orthotopic tumor model, HCC1937. The following applies: HCC1937 in mammary fat pads, NSG mice, daily oral 400 mg/kg, 28 days. Format: in vivo, mouse. Here is the method: Orthotopic Tumor Model. Experiments in mice were conducted under a protocol approved by the IACUC of City of Hope. Because HCC1937 and HCC1937+BRCA1 cells form slow-growing tumors, they were implanted using MATRIGEL™ (Becton-Dickinson Biosciences). To establish tumors, 4×10^6 cells in 200 μL serum-free medium containing 50% MATRIGEL™ were injected into the mammary fat pads around the inguinal area of a pair of 8 week old female NSG mice. Once the initial tumors reached 13 mm in diameter, they were dissected out, minced into 3 mm pieces and implanted into the inguinal area of the mammary fat pads of the experimental mice. Tumors were measured over a 28-day period, and for each time point, the student t-test was used to determine the statistical significance between daily gavage with 400 mg/kg COH29 in 30% solutol and corresponding vehicle control. Thep value less than 0.05 (2 sides) was considered to indicate statistical significance

The subject of data set [2] is MCF7 cells containing wild-type p53. Briefly: DNA damage checkpoint Western blot, MCF-7. Format: cell-based, human. On the procedure:
(§1) FIG. 6. COH29 treatment activates DNA damage checkpoint. The effect of COH29 treatment on DNA damage checkpoint proteins in human breast cancer cells expressing wt p53 (MCF-7) or defective for p53 (MCF-7p53−/−), and in triple-negative breast cancer cells (MDA-MB-468) assessed by Western Blot.
(§2) For subcellular fractionation, cells were trypsinized and washed with cold PBS solution twice. After centrifugation at 1,200 g for 5 min, cells were incubated in buffer (50 mM HEPES, pH 7.5, 150 mM NaCl, 1 mM EDTA) containing 0.2% NONIDET™ P-40 (NP-40), supplemented with protease inhibitors (5 μg/ml each of pepstatin, leupeptin, and aprotinin) and phosphatase inhibitors on ice for 5 min. Following centrifugation at 1,000 g for 5 min, the supernatant was collected (i.e., cytoplasmic fraction) and pellets were washed with the same buffer twice. The washed samples were extracted for 40 min on ice with fractionation buffer containing 0.5% NP-40 for nuclear fraction. All the samples were sonicated and clarified by centrifugation at 16,000 g for 15 min. Protein concentrations of all fractions were determined with Bio-Rad Protein Assay (Bio-Rad Laboratories, Hercules, Calif.). Immunoblotting was performed as described previously (21,22). […] The immunoblots were visualized on film with the West-Q chemi-luminescence kit (GenDEPOT, Barker, Tex.).

The next data set deals with A549 cells. Briefly: DDR proteins in A549 cells (Western blot, immunofluorescence). It is filed as cell-based, human. Here is the method:
Immunofluorescence experiments were conducted as described previously (21,22). Specifically, A549 cells were grown on glass coverslips. After treatment with COH29 (1 or 10 μM) for 24 or 48 hours, cells were fixed with 4% paraformaldehyde for 10 min and permeabilized with TRITON™ X-100 (0.5%). The coverslips were washed with phosphate-buffered saline (PBS) and blocked with PBS-containing 2% bovine serum albumin (BSA), incubated with an Ab specific to FOXO3 or ATM-pS1981 or γ-H2AX or p53-pS15 (1:50-1:200 dilution), followed by Alexa 488-conjugated anti-rabbit or anti-mouse (1:200), Alexa 594-conjugated anti-goat (1:100) secondary Abs (Molecular Probes). Cells were incubated with 4′,6-diamidino-2-phenylindole (DAPI; Sigma) to stain the nuclei. Specific staining was visualized and images were captured with a Leica SP2 AOBS confocal laser scanning microscope. To measure foci-positive cells, ˜300 cells were used randomly captured by confocal microscopy. The percentages of considering foci-positive cells were calculated from cells containing at least five foci. Each error bar presented is the mean of standard deviation.
as §2, with “All the samples were sonicated and clarified by centrifugation at 16,000 g for 15 min.” left out, “Calif.).” for “Calif.). Immunoblotting was performed as described previously (21,22).”

The subject of another data set is PARP1. Briefly: PARP1 protein expression by Western blot. Format: cell-based, human. On the procedure:
FIGS. 3A-3B. […] (FIG. 3A): the effect of COH29 on PARP1 activity in isogenic pairs of breast (HCC1937) and ovarian (UWB1.289) cancer cell lines expressing mutant or wt BRCA1 (wt=+BRCA1 in each case) was assessed in duplicate using procedures described in Materials & Methods; FIG. 3B: the effect of COH29 on PARP1 protein expression in the isogenic HCC1937/HCC1937+BRCA1 cell lines was assessed by Western blot analysis using anti-human PARP1 antibody as the primary antibody. Loading control is β-actin.
For subcellular fractionation, cells were trypsinized and washed with cold PBS solution twice. […] Following centrifugation at 1,000 g for 5 min, the supernatant was collected (i.e., cytoplasmic fraction) and pellets were washed with the same buffer twice. The washed samples were extracted for 40 min on ice with fractionation buffer containing 0.5% NP-40 for nuclear fraction. All the samples were sonicated and clarified by centrifugation at 16,000 g for 15 min. Protein concentrations of all fractions were determined with Bio-Rad Protein Assay (Bio-Rad Laboratories, Hercules, Calif.). Immunoblotting was performed as described previously (21,22). Briefly, equal amounts of boiled protein samples were subjected to SDS-polyacrylamide gel electrophoresis (PAGE) and transferred onto nitrocellulose membranes (Bio-Rad Laboratories). Membranes were blocked for 1 hour in 3% BSA in Tris buffered saline containing 0.05% Tween 20 (TBST) and incubated for 1 hour with primary antibody (1:500 or 1:1000) diluted in TBST containing 1% BSA. After two washes with TBST, membranes were incubated for 1 hour with horseradish peroxidase-conjugated secondary Abs (1:3000 dilution) at room temperature. The immunoblots were visualized on film with the West-Q chemi-luminescence kit (GenDEPOT, Barker, Tex.).

For the next data set, the system named is MCF-7 p53−/−. Briefly: DNA damage checkpoint Western blot, MCF-7 p53-/-. Format: cell-based, human. On the procedure: as §1, §2
A short description of data set [3]: GLP toxicity study in dogs. It is filed as in vivo. Particulars: for Toxicity: Beagles, top dose 42 mg/kg. The text has this:
Toxicity studies in rats and dogs at doses equivalent to 10× that dose have not shown toxicity at 10 or 21 days.

Regarding `O=C(Nc1nc(-c2ccc(O)c(O)c2)c(-c2ccccc2)s1)c1ccc(O)c(O)c1` [COH29, N-(4-(3,4-dihydroxyphenyl)-5-phenylthiazol-2-yl)-3,4-dihydroxybenzamide], the half-maximal inhibitory concentration (IC50) in data set [1] is under 10 µM. Besides, the “growth of tumors vs vehicle” value with HCC1937 tumors was “significantly (p=0.0007) suppressed”. In addition, in data set [2], the “DNA damage checkpoint (phosphorylation of ATM, CHK1, CHK2)” value is recorded as “activated the DNA damage checkpoint”. The γ-H2AX level result (in data set [2]; in the data set with MCF-7 p53−/−) was “increase” throughout. Moreover, in the data set with A549 cells (A549, 24 h), the “protein level of BRCA1 and Rad51 foci formation” value is listed as “suppressed”. In addition, the “γ-H2AX, phospho-p53 and phospho-ATM in the nucleus” value in the data set with A549 cells (A549, BRCA1 wild-type, 48 h) was “induced accumulation”. Also, the “Rad51 expression in the nucleus” value with A549 cells (A549, BRCA1 wild-type, Western analysis) is listed as “downregulated”. Further, the PARP1 protein level entry is “attenuated PARP1 protein” with PARP1 (HCC1937 BRCA1-defective, 24 h) and “Little reduction” with PARP1 (HCC1937 cells irrespective of BRCA1 status, 4 h). Further, the “DNA damage checkpoint proteins (ATM, CHK1, CHK2)” value with MCF-7 p53−/− is given as “similarly modified”. In addition, the Toxicity result in data set [3] (10 days) and in data set [3] (21 days) was “none” in each case. The molecule also returned a no observed adverse effect level (NOAEL) in data set [3] (beagle, dog, in vivo) of 84 mg/kg/day.

What is called IC50 is the point on the concentration scale where inhibition reaches its midpoint. The low end stands for inhibition by little substance, the high end for a need for much substance. A word on the NOAEL: it is the highest tested level that showed no adverse finding.

The values above are taken from patent publication US20210267948A1, “TREATMENT OF CANCER” (CITY OF HOPE, priority 2017, published 2021).
